Test results: patent US12459908B2, “Alpha, beta unsaturated methacrylic esters with anti-inflammatory properties” (Sitryx Therapeutics Limited, priority 2020, dated 2025)

What was measured:
NRF2 = NRF2 activation assay (DiscoverX PathHunter NRF2 translocation kit, U2OS cells); type: cell-based; settings: 6 hours
Protocol: Biological Example 2—NRF2 Activation Assay
Measuring Compound Activation Effects on the Anti-Inflammatory Transcription Factor NRF2 in DiscoverX PathHunter NRF2 Translocation Kit
Potency and efficacy of compounds of formula (I) against the target of interest to activate NRF2 (nuclear factor erythroid 2-related factor 2) were determined using the PathHunter NRF2 translocation kit (DiscoverX). The NRF2 translocation assay was run using an engineered recombinant cell line, utilising enzyme fragment complementation to determine activation of the Keap1-NRF2 protein complex and subsequent translocation of NRF2 into the nucleus. Enzyme activity was quantified using a chemiluminescent substrate consumed following the formation of a functional enzyme upon PK-tagged NRF2 translocation into the nucleus.
Additionally, a defined concentration of DMF was used as the ‘High’ control to normalise test compound activation responses to.
U2OS PathHunter eXpress cells were thawed from frozen prior to plating. Following plating, U2OS cells were incubated for 24 hrs (37° C./5% CO2) in commercial kit provided cell medium.
Following 24 hrs of incubation, plated U2OS cells were directly treated with an appropriate final concentration of compound. […]
Following compound treatment, the U2OS plates were incubated for a further 6 hours (37° C./5% CO2) before detection reagent from the PathHunter NRF2 commercial kit was prepared and added to test plates according to the manufacturer's instructions. Subsequently, the luminescence signal detection was measured in a microplate reader (PHERAstar®, BMG Labtech).
Percentage activation was calculated by normalising the sample data to the high and low controls used within each plate (+/−DMF). Percentage activation/response was then plotted against compound concentration and the 50% activation concentration ([…]) was determined from the plotted concentration-response curve.

IL-1β = assay: THP-1 AlphaLISA IL-1β cytokine inhibition assay (differentiated THP-1 cells); type: cell-based; settings: LPS 24 hr then Nigericin 1 hour
Protocol: Biological Example 1—THP-1 AlphaLISA IL-1β
Measuring Inhibitory Effects on IL-1, Cytokine Output from THP-1s
(§1) The cytokine inhibition profiles of compounds of formula (I) were determined in a differentiated THP-1 cell assay. All assays were performed in RPMI-1640 growth medium (Gibco), supplemented with 10% fetal bovine serum (FBS; Gibco), 1% penicillin-streptomycin and 1% sodium pyruvate unless specified otherwise. The IL-1p cytokine inhibition assay was run in a background of differentiated THP-1 cells as described below. All reagents described were from Sigma-Aldrich unless specified otherwise. Compounds were prepared as 10 mM DMSO stocks.
(§2) THP-1 cells were expanded as a suspension up to 80% confluence in appropriate growth medium. Cells were harvested, suspended, and treated with an appropriate concentration of phorbol 12-myristate 13-acetate (PMA) over a 72 hr period (37° C./5% CO2).
(§3) Following 72 hrs of THP-1 cell incubation, cellular medium was removed and replaced with fresh growth media containing 1% of FBS. Working concentrations of compounds were prepared separately in 10% FBS treated growth medium and pre-incubated with the cells for 30 minutes (37° C./5% CO2). Following the 30 minute compound pre-incubation, THP-1s were treated with an appropriate concentration of LPS and the cells were subsequently incubated for a 24 hr period (37° C./5% CO2). An appropriate final concentration of Nigericin was then dispensed into the THP-1 plates and incubated for 1 hour (37° C./5% CO2) before THP-1 supernatants were harvested and collected in separate polypropylene 96-well holding plates.
(§4) Reagents from an IL-1β and IL-6 commercial kit (Perkin Elmer) were prepared and run according to the manufacturer's instructions. Subsequently, fluorescence signal detection in a microplate reader was measured (EnVision® Multilabel Reader, Perkin Elmer).
(§5) Percentage inhibition was calculated per cytokine by normalising the sample data to the high and low controls used within each plate (+/−LPS respectively). Percentage inhibition was then plotted against compound concentration and the 50% inhibitory concentration (IC50) was determined from the resultant concentration-response curve.

[1] = Hepatocyte stability assay, human cryopreserved hepatocytes; type: in vitro ADME; settings: cryopreserved hepatocytes, Human hepatocytes, 10 μM, 60 min, read-out: T½
From the text: (§6) Biological Example 3—Hepatocyte Stability Assay
(§7) Defrosted cryo-preserved hepatocytes (viability >70%) were used to determine the metabolic stability of a compound via calculation of intrinsic clearance (CIint; a measure of the removal of a compound from the liver in the absence of blood flow and cell binding). Clearance data are particularly important for in vitro work as they can be used in combination with in vivo data to predict the half-life and oral bioavailability of a drug.
(§8) The metabolic stability in hepatocytes assay involves a time-dependent reaction using both positive and negative controls. The cells were pre-incubated at 37° C. and spiked with test compound (and positive control); samples taken at pre-determined time intervals were analysed to monitor the change in concentration of the initial drug compound over 60 minutes. A buffer incubation reaction (with no hepatocytes present) acted as a negative control and two cocktail solutions, containing compounds with known high and low clearance values (verapamil/7-hydroxycoumarin and propranolol/diltiazem), acted as positive controls. • 1. The assay was run with a cell concentration of 0.5×10^6 cells/mL in Leibovitz buffer. • 2. All compounds and controls were run in duplicate. • 3. Compound concentration was 10 μM. • 4. All compounds and controls were incubated with both cells and buffer to show turnover was due to hepatic metabolism. • 5. All wells on the incubation plate had 326.7 μL of either cells or buffer added. • 6. Prior to assay, cell and buffer-only incubation plates were preincubated for 10 mins at 37° C. • 7. The assay was initiated by adding compounds, 3.3 μL of 1 mM in 10% DMSO-90% Buffer; final DMSO concentration is 0.1%. • 8. Samples were taken at regular timepoints (0, 5, 10, 20, 40, 60 min) until 60 mins. • 9. Sample volume was 40 μL and was added to 160 μL of crash solvent (acetonitrile with internal standard) and stored on ice. • 10. At the end of the assay, the crash plates were centrifuged at 3500 rpm for 20 mins at 4° C. • 11. 80 μL of clear supernatant was removed and mixed with 80 μL of deionised water before being analysed by LC-MS/MS.
(§9) Raw LC-MS/MS data was exported to, and analysed in, Microsoft Excel for determination of intrinsic clearance. The percentage remaining of a compound was monitored using the peak area of the initial concentration as 100%. Intrinsic clearance and half-life values were calculated using a graph of the natural log of percentage remaining versus the time of reaction in minutes. Half-life (min) and intrinsic clearance (CIint in μL min^−1 10^−6 cells) values were calculated using the gradient of the graph (the elimination rate constant, k) and Equations 1 and 2.

[2] = test system: cryo-preserved hepatocytes; assay: as above; type: in vitro ADME
From the text: as §6, §7, §8, §9

[3] = Hepatocyte stability assay, mouse cryopreserved hepatocytes; type: in vitro ADME; settings: cryopreserved hepatocytes, Mouse hepatocytes, 10 μM, 60 min, read-out: T½
From the text: as §6, §7, §8, §9

[4] = test system: cryo-preserved hepatocytes; assay: as above; type: in vitro ADME
From the text: as §6, §7, §8, §9

IL-6 = assay: THP-1 AlphaLISA IL-6 cytokine inhibition assay (differentiated THP-1 cells); type: cell-based; settings: LPS 24 hr then Nigericin 1 hour
Protocol: as §1, §2, §3, §4, §5

[5] = Human hepatocytes, 10 μM, 60 min, numeric values
[6] = Mouse hepatocytes, 10 μM, 60 min, numeric values
[7] = Homo sapiens, normalised to DMF high control, class symbols
[8] = compared to 4-octyl itaconate, ethyl 2-(2-chlorobenzyl)acrylate and 2-(2-chlorobenzyl)acrylic acid
[9] = Mouse hepatocytes, 10 μM, 60 min, class symbols

| Compound | EC50 (NRF2; Homo sapiens, class symbols) [µM] | Emax (NRF2; [7]) [%] | IC50 (IL-1β; Homo sapiens, class symbols) [µM] | half-life at 10 μM ([1]; class symbols) [min] | half-life at 10 μM ([3]; class symbols) [min] | Clint [4, 9] | IC50 (IL-6; Homo sapiens, class symbols) [µM] | other results |
| --- | --- | --- | --- | --- | --- | --- | --- | --- |
| C=C(Cc1ccccc1Cl)C(=O)O [2-(2-chlorobenzyl)acrylic acid, reference compound] | – | – | – | – | – | – | – | Emax (NRF2; Homo sapiens, normalised to DMF high control, numeric values): 2%; EC50 (NRF2; Homo sapiens, numeric values): > 100 µM; IC50 (IL-1β; Homo sapiens, numeric values): > 100 µM; half-life at 10 μM ([1]; numeric values): 59 min; Clint [2, 5]: 21 μL min^−1 10^−6 cells; half-life at 10 μM ([3]; numeric values): 11 min; Clint [4, 6]: 95 μL min^−1 10^−6 cells |
| C=C(CC(=O)OCCCCCCCC)C(=O)O [4-octyl itaconate, reference compound] | – | – | – | – | – | – | – | NRF2 activation Emax (NRF2; normalised to DMF high control, numeric values): 165%; EC50 (NRF2; numeric values): 22 µM; IC50 (IL-1β; numeric values): 33 µM; Clint [2, 5]: 401 μL min^−1 10^−6 cells; T½ [2, 5]: 4 min; Clint [4, 6]: 351 μL min^−1 10^−6 cells; T½ [4, 6]: 4 min; IC50 (IL-6; numeric values): 25 µM |
| C=C(Cc1nc(Cc2ccc(Cl)cc2)no1)C(=O)OCC(=O)O [Example 3, 2-((2-((3-(4-chlorobenzyl)-1,2,4-oxadiazol-5-yl)methyl)acryloyl)oxy)acetic acid] | 11 to 21 | 135 to 165 | 11 to 20 | > 100 | > 11 | +++ (For Clint (μL min^−1 10^−6 cells; mouse), +++ means <95) | – | Stability in human hepatocytes compared to comparators [2, 8]: more stable; Stability in mouse hepatocytes compared to comparators [4, 8]: more stable |
| C=C(Cc1nc(Cc2ccc(CCCC)cc2)no1)C(=O)OCC(=O)O [Example 13, 2-((2-((3-(4-butylbenzyl)-1,2,4-oxadiazol-5-yl)methyl)acryloyl)oxy)acetic acid] | < 5 | 166 to 250 | < 5 | 5 to 59 | ≤ 4 | + (+ means ≥351) | < 5 | – |
| C=C(Cc1nc(CCCCCCCC)no1)C(=O)O[C@H](CC(=O)O)C(F)(F)F [Example 5, (R)-4,4,4-trifluoro-3-((2-((3-octyl-1,2,4-oxadiazol-5-yl)methyl)acryloyl)oxy)butanoic acid] | < 5 | 135 to 165 | < 5 | 5 to 59 | ≤ 4 | + (+ means ≥351) | < 5 | – |
| C=C(Cc1nc(C2(c3ccc(C(F)(F)F)cc3)CC2)no1)C(=O)O[C@H](CC(=O)O)C(F)(F)F [Example 7, (R)-4,4,4-trifluoro-3-((2-((3-(1-(4-(trifluoromethyl)phenyl)cyclopropyl)-1,2,4-oxadiazol-5-yl)methyl)acryloyl)oxy)butanoic acid] | < 5 | 3 to 100 | < 5 | 5 to 59 | ≤ 4 | + (+ means ≥351) | < 5 | – |
| C=C(Cc1nc(C2(c3ccc(Br)cc3)CC2)no1)C(=O)OCC(=O)O [Example 18, 2-((2-((3-(1-(4-bromophenyl)cyclopropyl)-1,2,4-oxadiazol-5-yl)methyl)acryloyl)oxy)acetic acid] | 5 to 10 | 166 to 250 | < 5 | 60 to 100 | 5 to 11 | ++ (++ means 95-350) | < 5 | – |
| C=C(Cc1ccccc1Cl)C(=O)OCC [ethyl 2-(2-chlorobenzyl)acrylate, reference compound] | – | – | – | – | – | – | – | IC50 (IL-1β; Homo sapiens, numeric values): > 100 µM; half-life at 10 μM ([1]; numeric values): < 3 min; Clint [2, 5]: >460 μL min^−1 10^−6 cells; half-life at 10 μM ([3]; numeric values): < 3 min; Clint [4, 6]: >460 μL min^−1 10^−6 cells |
| C=C(Cc1nc(CCCCCCCC)no1)C(=O)O[C@@H](CC(=O)O)C(F)(F)F [Example 6, (S)-4,4,4-trifluoro-3-((2-((3-octyl-1,2,4-oxadiazol-5-yl)methyl)acryloyl)oxy)butanoic acid] | < 5 | > 250 | < 5 | 5 to 59 | ≤ 4 | + (+ means ≥351) | < 5 | – |
| C=C(Cc1nc(Cc2ccc(CCCC)cc2)no1)C(=O)O[C@@H](CC(=O)O)C(F)(F)F [Example 10, (S)-3-((2-((3-(4-butylbenzyl)-1,2,4-oxadiazol-5-yl)methyl)acryloyl)oxy)-4,4,4-trifluorobutanoic acid] | < 5 | 135 to 165 | < 5 | < 5 | ≤ 4 | + (+ means ≥351) | < 5 | – |
| C=C(Cc1nc(C2(c3ccc(OC(F)(F)F)cc3)CC2)no1)C(=O)OCC(=O)O [Example 19, 2-((2-((3-(1-(4-(trifluoromethoxy)phenyl)cyclopropyl)-1,2,4-oxadiazol-5-yl)methyl)acryloyl)oxy)acetic acid] | 5 to 10 | 166 to 250 | < 5 | 5 to 59 | 5 to 11 | ++ (++ means 95-350) | < 5 | – |
